Data from patent publication US20090298817A1, “ANTI-AMNESIC COMPOUNDS AND PHARMACEUTICAL CO[…]” (priority 2008, published 2009).

Tested on: amnesia induced by scopolamine in rats
Assay: passive avoidance test, amnesia induced by scopolamine in rats
Type: in vivo
Procedure: The purpose of the study is to examine the effects of etifoxine on amnesia, induced by a substance which is an antagonist of the cholinergic receptors in rats, scopolamine (see in particular Rush (1988) Behav. Neural. Biol. 1988 50:255-274).
Memory capacities are evaluated over the course of the passive avoidance test in a box with two compartments, dark and light. In a first step, the acquisition step, entering the dark compartment is associated with an unpleasant electric shock. In a second step, the retention step, the latency to enter the dark compartment is measured. The lower this latency, the more strongly the animal is suffering from amnesia.
Amnesia is induced by administering scopolamine 30 minutes before the information acquisition step.
Two series of tests were performed: • 1) Etifoxine was administered intraperitoneally 35 minutes before acquisition of the event. • 7 groups of 10 to 20 rats were formed, each group receiving the following respective treatments: • Group 1 (reference): scopolamine 0 mg/kg, etifoxine 0 mg/kg • Group 2 (control): scopolamine 0 mg/kg, etifoxine 50 mg/kg • Group 3: scopolamine 1.4 mg/kg, etifoxine 0 mg/kg • Group 4: scopolamine 1.4 mg/kg, etifoxine 6.2 mg/kg • Group 5: scopolamine 1.4 mg/kg, etifoxine 12.5 mg/kg • Group 6: scopolamine 1.4 mg/kg, etifoxine 25 mg/kg • Group 7: scopolamine 1.4 mg/kg, etifoxine 50 mg/kg • 2) Etifoxine was administered intraperitoneally immediately after acquisition of the event. • 7 groups of 10 rats were formed, each group receiving the following respective treatments: • Group 1 (reference): scopolamine 0 mg/kg, etifoxine 0 mg/kg • Group 2 (control): scopolamine 0 mg/kg, etifoxine 50 mg/kg • Group 3: scopolamine 1.4 mg/kg, etifoxine 0 mg/kg • Group 4: scopolamine 1.4 mg/kg, etifoxine 6.2 mg/kg • Group 5: scopolamine 1.4 mg/kg, etifoxine 12.5 mg/kg • Group 6: scopolamine 1.4 mg/kg, etifoxine 25 mg/kg • Group 7: scopolamine 1.4 mg/kg, etifoxine 50 mg/kg
For each test series and for each group the latency to enter the dark compartment was measured in the case of acquisition and in the case of retention.
For the first series of tests, a one-way ANOVA analysis was performed followed by the Student-Newman-Keuls test in order to find the differences between the groups. The difference is considered significant if the critical value P obtained was less than 0.05.
For the second series of tests, the non-parametric Kruskal-Wallis test was performed followed by the Dunn test in order to find the differences between the groups. The difference is considered significant if the critical value P obtained was less than 0.05.

CCNC1=Nc2ccc(Cl)cc2C(C)(c2ccccc2)O1.Cl (stereo not shown) [etifoxine, 6-chloro-2-ethylamino-4-methyl-4-phenyl-4H-[3,1]benzoxazine hydrochloride]
anti-amnesic action (animals, model where memory disorder is induced by scopolamine (summary statement)): exhibits anti-amnesic action | effect on the amnesic effects of scopolamine (latency to enter the dark compartment, retention) (rats, etifoxine 6.2-50 mg/kg intraperitoneally 35 minutes before acquisition, scopolamine 1.4 mg/kg 30 minutes before acquisition, FIG. 1): counteracts the amnesic effects of scopolamine according to an inverted U-shaped curve | effect on the amnesic effects of scopolamine (latency to enter the dark compartment, retention) (rats, etifoxine 6.2-50 mg/kg intraperitoneally immediately after acquisition, scopolamine 1.4 mg/kg 30 minutes before acquisition, FIG. 2): counteracts the amnesic effects of scopolamine according to an inverted U-shaped curve

CN1[C@@H]2C[C@@H](OC(=O)[C@H](CO)c3ccccc3)C[C@H]1[C@@H]1O[C@@H]12 [Scopolamine]
time period to enter the dark compartment vs. reference groups (rats, scopolamine 1.4 mg/kg 30 minutes before acquisition, etifoxine 0, FIGS. 1, 2): significantly shorter
